Key:
Oral LD50 in mice = settings: mouse, in vivo
[1] = tested on: reserpine-induced hypothermia; test: Reversal of reserpine-induced hypothermia in mice (RHL test); assay type: in vivo; settings: reserpine 2 mg./kg. s.c., T0 to T4 (4 hours)
Method: The reversal of reserpine-induced hypothermia, known as the RHL test, is carried out as follows:
Mice are kept in a constant temperature room maintained at 21 ± 1° C. Each member of groups of 4 mice is given reserpine (2 mg. of base per kg. bodyweight, given subcutaneously as the acetate). Seventeen hours later the oesophageal temperature (T0) of each mouse is recorded by means of an orally-inserted probe coupled to an electric thermometer which is calibrated in degrees Centrigrade and which can be read to 0.1° C. Immediately after the temperature measurement the mice are dosed orally with the test compound, or with imipramine, each mouse in a group of 4 being given the same substance, and the oesophageal temperatures are again recorded after 4 hours (T4). The compound under test is dosed at serial dilutions, e.g. 100, 30, 10, 3, 1, 0.3, 0.1 mg./kg. Imipramine is used as the control. […] At 1 mg./kg. it produces an average rise of 1.7° C. A test compound which at a certain does level gives a rise in temperature equal to or greater than that given by 1 mg./kg. of imipramine, dosed to a different set of mice on the same day, is adjudged "active" at that dose.

SMILES	LD50 (Oral LD50 in mice) [mg/kg]	average rise in the temperature of a reserpinised mouse ([1]; imipramine 1 mg./kg. oral) [°C]	average rise in the temperature of a reserpinised mouse ([1]; imipramine 3 mg./kg. oral) [°C]
Cc1ccccc1CCC1CNCCO1 (stereo not drawn) [2-[β-(2-methylphenyl)ethyl]morpholine]	550		
c1ccc(Oc2ccccc2CCC2CNCCO2)cc1 (stereo not drawn) [2-[β-(2-phenoxyphenyl)ethyl]morpholine]	1000		
CN(C)CCCN1c2ccccc2CCc2ccccc21 [imipramine]		1.7	3
